Experimental data published in article PMC8703108, “Identifying of Anti-Thrombin Active Components From Curcumae Rhizoma by Affinity-Ultrafiltration Coupled With UPLC-Q-Exactive Orbitrap/MS” (Frontiers in Pharmacology, 2021).

The compounds below were run against T1, thrombin (THR, FIIα) (Homo sapiens, UniProt P00734) (assay: chromogenic substrate S-2238 assay; affinity ultrafiltration LC-MS hit).
T1 construct: gene F2; human recombinant THR
Type: biochemical

IC50 [µM] | SMILES
358 | CC(=O)OC(CCc1ccc(O)c(O)c1)CC(CCc1ccc(O)c(O)c1)OC(C)=O (stereo not drawn) [C7, 4,4′-[3,5-bis(acetyloxy)-1,7-heptanediyl]bis-1,2-benzenediol]
9.92 | CC(=O)OC(CCc1ccc(O)cc1)CC(O)CCc1ccc(O)cc1 (stereo not drawn) [C8, 3-acetate-1,7-bis(4-hydroxyphenyl)-3,5-heptanediol]
654 | CC(=O)OC(CCc1ccc(O)cc1)CC(CCc1ccc(O)c(O)c1)OC(C)=O (stereo not drawn) [C11, 4-[3,5-bis(acetyloxy)-7-(4-hydroxyphenyl)heptyl]-1,2-benzenediol]
